Source: PMC12329717 (Biochemistry, 2025)

Columns and labels:
HnoK = molecular target: T1, HnoK (Caulobacter vibrioides, UniProt A0A0H3CAQ8, D543N); test: […] autophosphorylation, SDS-PAGE autoradiography; assay type: biochemical; details: 1 mM ATP with [gamma-32P]ATP, Mn2+ or Mg2+ 5 mM (Mn2+ preferred), room temperature; MBP fusion; labelled compound
T1 construct: gene CCNA_03088; N-terminal 6-His version also tested; E. coli BL21(DE3); homodimer

[1] = molecular target: Caulobacter crescentus histidine kinase HnoK, as purified (Caulobacter crescentus); test: SEC; HiPrep Sephacryl S-200 HR column in 20 mM Tris, pH 8, 150 mM NaCl; elution volumes at the last step of purification

T1 sequence (A0A0H3CAQ8 entry or part of it D543N): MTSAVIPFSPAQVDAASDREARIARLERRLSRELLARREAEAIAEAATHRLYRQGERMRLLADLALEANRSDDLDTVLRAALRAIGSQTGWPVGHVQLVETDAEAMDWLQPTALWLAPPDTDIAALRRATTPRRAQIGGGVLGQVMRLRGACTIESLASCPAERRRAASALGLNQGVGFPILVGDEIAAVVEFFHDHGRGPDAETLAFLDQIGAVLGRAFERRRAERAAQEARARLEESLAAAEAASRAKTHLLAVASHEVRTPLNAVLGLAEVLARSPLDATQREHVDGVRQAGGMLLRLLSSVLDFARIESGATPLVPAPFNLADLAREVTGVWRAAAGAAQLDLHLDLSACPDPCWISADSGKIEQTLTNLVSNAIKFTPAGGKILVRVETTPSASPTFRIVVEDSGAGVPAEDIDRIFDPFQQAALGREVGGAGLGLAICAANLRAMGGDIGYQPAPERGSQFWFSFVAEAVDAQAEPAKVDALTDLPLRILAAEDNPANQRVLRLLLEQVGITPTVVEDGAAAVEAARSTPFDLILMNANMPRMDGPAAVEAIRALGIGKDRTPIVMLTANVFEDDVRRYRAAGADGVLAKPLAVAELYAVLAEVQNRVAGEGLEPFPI

stoichiometry N [1]	Compound	32P autophosphorylation, SDS-PAGE autoradiography (HnoK)
	Nc1ncnc2c1ncn2[C@@H]1O[C@H](COP(=O)(O)OP(=O)(O)OP(=O)(O)O)[C@@H](O)[C@H]1O [ATP]	D543N HnoK-MBP was used for the autophosphorylation assays shown
2	Caulobacter crescentus histidine kinase HnoK, as purified (from UniProt A0A0H3CAQ8 1-624) (enzyme)	
